# In patent US10213433B2 (AbbVie Inc., priority 2010, dated 2019):
# Target: Bcl-2 protein (Homo sapiens (Human), UniProt P10415)
# Assay: Bcl-2 binding TR-FRET (Time-Resolved Fluorescence-Resonance-Energy-Transfer) assay
# Conditions: inhibition constant for binding to Bcl-2 protein
# From the text: The smaller the Ki value, the greater is the binding affinity.
# Bcl-2 protein, sequence (P10415 whole entry): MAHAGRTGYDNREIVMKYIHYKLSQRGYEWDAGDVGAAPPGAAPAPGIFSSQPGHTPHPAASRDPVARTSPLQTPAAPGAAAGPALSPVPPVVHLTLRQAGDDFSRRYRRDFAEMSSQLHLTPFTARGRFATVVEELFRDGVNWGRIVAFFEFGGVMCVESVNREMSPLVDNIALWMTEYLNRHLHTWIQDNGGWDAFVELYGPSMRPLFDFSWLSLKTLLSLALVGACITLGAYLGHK
row,SMILES,Ki
1,"CC1(C)CCC(CN2CCN(c3ccc(C(=O)NS(=O)(=O)c4ccc(NCCCNC5CC5)c([N+](=O)[O-])c4)c(Oc4cnc5[nH]ccc5c4)c3)CC2)=C(c2ccc(Cl)cc2)C1 [Compound 291, 4-(4-{[2-(4-chlorophenyl)-4,4-dimethylcyclohex-1-en-1-yl]methyl}piperazin-1-yl)-N-[(4-{[3-(cyclopropylamino)propyl]amino}-3-nitrophenyl)sulfonyl]-2-(1H-pyrrolo[2,3-b]pyridin-5-yloxy)benzamide]",< 0.01 nM
2,"CN(C)CC(=O)N1CCC(COc2ccc(S(=O)(=O)NC(=O)c3ccc(N4CCN(CC5=C(c6ccc(Cl)cc6)CC(C)(C)CC5)CC4)cc3Oc3cnc4[nH]ccc4c3)cc2Cl)CC1 [Compound 295, N-[(3-chloro-4-{[1-(N,N-dimethylglycyl)piperidin-4-yl]methoxy}phenyl)sulfonyl]-4-(4-{[2-(4-chlorophenyl)-4,4-dimethylcyclohex-1-en-1-yl]methyl}piperazin-1-yl)-2-(1H-pyrrolo[2,3-b]pyridin-5-yloxy)benzamide]",< 0.01 nM
3,"COC(=O)N1CCOC(CNc2ccc(S(=O)(=O)NC(=O)c3ccc(N4CCN(CC5=C(c6ccc(Cl)cc6)CC(C)(C)CC5)CC4)cc3Oc3cnc4[nH]ccc4c3)cc2[N+](=O)[O-])C1 (stereo not shown) [Compound 317, methyl 2-{[(4-{[4-(4-{[2-(4-chlorophenyl)-4,4-dimethylcyclohex-1-en-1-yl]methyl}piperazin-1-yl)-2-(1H-pyrrolo[2,3-b]pyridin-5-yloxy)benzoyl]sulfamoyl}-2-nitrophenyl)amino]methyl}morpholine-4-carboxylate]",< 0.01 nM
4,"CCN(C)C(=O)N1CCOC(CNc2ccc(S(=O)(=O)NC(=O)c3ccc(N4CCN(CC5=C(c6ccc(Cl)cc6)CC(C)(C)CC5)CC4)cc3Oc3cnc4[nH]ccc4c3)cc2[N+](=O)[O-])C1 (stereo not shown) [Compound 318, 2-{[(4-{[4-(4-{[2-(4-chlorophenyl)-4,4-dimethylcyclohex-1-en-1-yl]methyl}piperazin-1-yl)-2-(1H-pyrrolo[2,3-b]pyridin-5-yloxy)benzoyl]sulfamoyl}-2-nitrophenyl)amino]methyl}-N-ethyl-N-methylmorpholine-4-carboxamide]",< 0.01 nM
5,"CC1(C)CCC(CN2CCN(c3ccc(C(=O)NS(=O)(=O)c4ccc(NCC5CN(S(C)(=O)=O)CCO5)c([N+](=O)[O-])c4)c(Oc4cnc5[nH]ccc5c4)c3)CC2)=C(c2ccc(Cl)cc2)C1 (stereo not shown) [Compound 319, 4-(4-{[2-(4-chlorophenyl)-4,4-dimethylcyclohex-1-en-1-yl]methyl}piperazin-1-yl)-N-{[4-({[4-(methylsulfonyl)morpholin-2-yl]methyl}amino)-3-nitrophenyl]sulfonyl}-2-(1H-pyrrolo[2,3-b]pyridin-5-yloxy)benzamide]",< 0.01 nM
6,"CC1(C)CCC(CN2CCN(c3ccc(C(=O)NS(=O)(=O)c4ccc(NCCCN(C5CCC5)C5CC5)c([N+](=O)[O-])c4)c(Oc4cnc5[nH]ccc5c4)c3)CC2)=C(c2ccc(Cl)cc2)C1 [Compound 320, 4-(4-{[2-(4-chlorophenyl)-4,4-dimethylcyclohex-1-en-1-yl]methyl}piperazin-1-yl)-N-{[4-({3-[cyclobutyl(cyclopropyl)amino]propyl}amino)-3-nitrophenyl]sulfonyl}-2-(1H-pyrrolo[2,3-b]pyridin-5-yloxy)benzamide]",< 0.01 nM
7,"O=C(NS(=O)(=O)c1ccc(NCC2CCOCC2)c([N+](=O)[O-])c1)c1ccc(N2CCN(CC3=C(c4ccc(Cl)cc4)CCC(F)(F)C3)CC2)cc1Oc1cnc2[nH]ccc2c1 [Compound 321, 4-(4-{[2-(4-chlorophenyl)-5,5-difluorocyclohex-1-en-1-yl]methyl}piperazin-1-yl)-N-({3-nitro-4-[(tetrahydro-2H-pyran-4-ylmethyl)amino]phenyl}sulfonyl)-2-(1H-pyrrolo[2,3-b]pyridin-5-yloxy)benzamide]",< 0.01 nM
8,"O=C(NS(=O)(=O)c1ccc(OCC2(F)CCOCC2)c(Cl)c1)c1ccc(N2CCN(CC3=C(c4ccc(Cl)cc4)CCC4(CCN(C5COC5)CC4)C3)CC2)cc1Oc1cnc2[nH]ccc2c1 [Compound 325, N-({3-chloro-4-[(4-fluorotetrahydro-2H-pyran-4-yl)methoxy]phenyl}sulfonyl)-4-(4-{[9-(4-chlorophenyl)-3-(oxetan-3-yl)-3-azaspiro[5.5]undec-8-en-8-yl]methyl}piperazin-1-yl)-2-(1H-pyrrolo[2,3-b]pyridin-5-yloxy)benzamide]",< 0.01 nM
9,"CC1(C)CCC(CN2CCN(c3ccc(C(=O)NS(=O)(=O)c4ccc(NC[C@@H]5CN(C6CC6)CCO5)c([N+](=O)[O-])c4)c(Oc4cnc5[nH]ccc5c4)c3)CC2)=C(c2ccc(Cl)cc2)C1 [Compound 326, 4-(4-{[2-(4-chlorophenyl)-4,4-dimethylcyclohex-1-en-1-yl]methyl}piperazin-1-yl)-N-{[4-({[(2R)-4-cyclopropylmorpholin-2-yl]methyl}amino)-3-nitrophenyl]sulfonyl}-2-(1H-pyrrolo[2,3-b]pyridin-5-yloxy)benzamide]",< 0.01 nM
10,"CC1(C)CCC(CN2CCN(c3ccc(C(=O)NS(=O)(=O)c4ccc(NC[C@H]5CN(C6CC6)CCO5)c([N+](=O)[O-])c4)c(Oc4cnc5[nH]ccc5c4)c3)CC2)=C(c2ccc(Cl)cc2)C1 [Compound 327, 4-(4-{[2-(4-chlorophenyl)-4,4-dimethylcyclohex-1-en-1-yl]methyl}piperazin-1-yl)-N-{[4-({[(2S)-4-cyclopropylmorpholin-2-yl]methyl}amino)-3-nitrophenyl]sulfonyl}-2-(1H-pyrrolo[2,3-b]pyridin-5-yloxy)benzamide]",< 0.01 nM
11,"O=C(NS(=O)(=O)c1ccc(NCC2CCOCC2)c([N+](=O)[O-])c1)c1ccc(N2CCN(CC3=C(c4ccc(Cl)cc4)CC4(CC3)CC4)CC2)cc1Oc1cnc2[nH]ccc2c1 [Compound 328, 4-(4-{[5-(4-chlorophenyl)spiro[2.5]oct-5-en-6-yl]methyl}piperazin-1-yl)-N-({3-nitro-4-[(tetrahydro-2H-pyran-4-ylmethyl)amino]phenyl}sulfonyl)-2-(1H-pyrrolo[2,3-b]pyridin-5-yloxy)benzamide]",< 0.01 nM
12,"O=C(NS(=O)(=O)c1ccc(NCC2CN(C3CC3)CCO2)c([N+](=O)[O-])c1)c1ccc(N2CCN(CC3=C(c4ccc(Cl)cc4)CC4(CC3)CC4)CC2)cc1Oc1cnc2[nH]ccc2c1 (stereo not shown) [Compound 330, 4-(4-{[5-(4-chlorophenyl)spiro[2.5]oct-5-en-6-yl]methyl}piperazin-1-yl)-N-[(4-{[(4-cyclopropylmorpholin-2-yl)methyl]amino}-3-nitrophenyl)sulfonyl]-2-(1H-pyrrolo[2,3-b]pyridin-5-yloxy)benzamide]",< 0.01 nM
13,"CC1(C)CCC(CN2CCN(c3ccc(C(=O)NS(=O)(=O)c4ccc(NC5CCC(N(CCC#N)C6CC6)CC5)c([N+](=O)[O-])c4)c(Oc4cnc5[nH]ccc5c4)c3)CC2)=C(c2ccc(Cl)cc2)C1 (stereo not shown) [Compound 340, 4-(4-{[2-(4-chlorophenyl)-4,4-dimethylcyclohex-1-en-1-yl]methyl}piperazin-1-yl)-N-{[4-({4-[(2-cyanoethyl)(cyclopropyl)amino]cyclohexyl}amino)-3-nitrophenyl]sulfonyl}-2-(1H-pyrrolo[2,3-b]pyridin-5-yloxy)benzamide]",< 0.01 nM
